PubChem BioAssay AID1963872 (Molecular Pharmacology Branch, DTP, NCI, 2024)

Tested on: KRAS patient-derived spheroids with HUVEC/MSC, viability
Test: Anticancer human tumor 519858-162-T-J1-PDC patient-derived colon adenocarcinoma cell line growth inhibition [KRAS2]
Conditions: for IC50: curve of first compound; for viability, T/C: stronger effect = lower value; active = viability on the fitted dose curve at most 10% of control; inactive = the rest
Outline: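 KRAS-mutant tumor cells were grown as spheroids with HUVEC endothelial cells and human MSCs as stroma. Targeted agents were tested alone and with KRAS pathway inhibitors. Doses started at or near clinical Cmax, or 10 microM, descending half-log.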
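Also: compound exposure lasted seven days before readout.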
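For viability, T/C in this document: 100% = DMSO vehicle control viability.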

CC1(C)CCC(CN2CCN(c3ccc(C(=O)NS(=O)(=O)c4ccc(NCC5CCOCC5)c([N+](=O)[O-])c4)c(Oc4cnc5[nH]ccc5c4)c3)CC2)=C(c2ccc(Cl)cc2)C1 + CC1OCC2(CCN(c3cnc(Sc4ccnc(N)c4Cl)c(N)n3)CC2)C1N
inactive: viability, T/C (second compound 0.1 µM, first compound 0.0316 µM) 81.4% | viability, T/C (second compound 0.1 µM, first compound 0.1 µM) 93.4% | viability, T/C (second compound 0.1 µM, first compound 0.316 µM) 91.2% | viability, T/C (second compound 0.1 µM, first compound 1 µM) 82.3% | viability, T/C (second compound 0.1 µM, first compound 3.16 µM) 72.6% | viability, T/C (second compound 0.1 µM, first compound 10 µM) 78.2% | viability, T/C (second compound 0.316 µM, first compound 0.0316 µM) 72.6% | viability, T/C (second compound 0.316 µM, first compound 0.1 µM) 71.3% | viability, T/C (second compound 0.316 µM, first compound 0.316 µM) 89.1% | viability, T/C (second compound 0.316 µM, first compound 1 µM) 69.5% | viability, T/C (second compound 0.316 µM, first compound 3.16 µM) 67.8% | viability, T/C (second compound 0.316 µM, first compound 10 µM) 57.4% | viability, T/C (second compound 1 µM, first compound 0.0316 µM) 65.7% | viability, T/C (second compound 1 µM, first compound 0.1 µM) 74.5% | viability, T/C (second compound 1 µM, first compound 0.316 µM) 42.8% | viability, T/C (second compound 1 µM, first compound 1 µM) 58.7% | viability, T/C (second compound 1 µM, first compound 3.16 µM) 59.9% | viability, T/C (second compound 1 µM, first compound 10 µM) 23.5% | viability, T/C (second compound 3.16 µM, first compound 0.0316 µM) 48.8% | viability, T/C (second compound 3.16 µM, first compound 0.1 µM) 58.4% | viability, T/C (second compound 3.16 µM, first compound 0.316 µM) 61.7% | viability, T/C (second compound 3.16 µM, first compound 1 µM) 62.8% | viability, T/C (second compound 3.16 µM, first compound 3.16 µM) 60.2% | viability, T/C (second compound 3.16 µM, first compound 10 µM) 29.9% | viability, T/C (second compound 10 µM, first compound 0.0316 µM) 89.7% | viability, T/C (second compound 10 µM, first compound 0.1 µM) 66.9% | viability, T/C (second compound 10 µM, first compound 0.316 µM) 74.8% | viability, T/C (second compound 10 µM, first compound 1 µM) 61.6% | viability, T/C (second compound 10 µM, first compound 3.16 µM) 60.6% | viability, T/C (second compound 10 µM, first compound 10 µM) 23.5%
3.65 µM: IC50 (second compound 10 µM)
2.98 µM: IC50 (second compound 3.16 µM)
> 10 µM: IC50 (second compound 0.1 µM) | IC50 (second compound 0.316 µM)
4.32 µM: IC50 (second compound 1 µM)
